Laboratory results: patent US8530433B2, “Use of icariside II in manufacture of products for preventing or treating male or female sexual dysfunction” (Bjo-Biomed Ltd, priority 2008, dated 2013)

Legend:
[1] = system: Porcine vascular endothelial cells (PAE); assay: NOS enzyme activity in vascular endothelial cells (PAE), NOS kit; type: cell-based; conditions: for NOS enzyme activity: PAE cells
Experimental: Porcine vascular endothelial cells (PAE) were provided by the Institute of Urology, Peking University. The determination of the effect of icariside II on NOS activity in the endothelial cell is conducted using NOS kit (Cayman Chemical company, Ann Arbor, Mich., USA). Vascular endothelial cells (PAE) were treated with different concentrations of icariside II (0, 10^−9, 10^−8, 10^−7, 10^−6, 10^−5 and 10^−4 M) (sildenafil as the control group). 180 μl lysate was added into each culture well. 20 μl supernatant was used for protein concentration assay with BCA protein kit. And, 100 μl supernatant was analyzed for NOS activity with NOS kit (Cayman Chemical company, Ann Arbor, Mich., USA). NOS activity (units/mg)=[(valueNos-measure−valueNOS-blank)÷(38.3×10^6)]×[(2.15+supernatant volume)÷(15×supernatant volume)]÷[protein concentration of each Petri dish].

[2] = system: PAE-EGFR cells; assay: eNOS protein expression by Western blot in PAE-EGFR cells; type: cell-based, porcine; conditions: 12.5 μM, 24 hr; for eNOS protein expression (normalized to β-actin): PAE-EGFR cells; for eNOS expression levels: PAE-EGFR stable strains
Experimental: 1) The EGFR gene was subcloned into pGFP plasmid to construct pGFP-EGFR expression vector. With Liposome transfection reagent (Qigen), pGFP-EGFR was transfected into PAE cells. After the selection with 1800 μg/ml of G418, a single cell clone was selected. Western blot confirms the stable expression of EGFR in the PAE-EGFR cells. 2) 5×10^5 of the PAE cells and PAE-EGFR cells were seeded into 35 mm Petri dishes plate in quadruplicate. After 12 hours, PAE and PAE-EGFR cells was treated with 12.5 μM icariside II and sildenafil for 24 hr, respectively. Then the treated PAE and PAE-EGFR cells were lysed with RIPA buffer and subjected to 8% SDS-PAGE electrophoresis. eNOS protein expression was detect by Western blot. After development with super ECL luminescence substrate, the band was analyzed with a Optical density scanner. The results were analyzed by normalizing to β-actin. 3) 5×10^5 of the PAE cells and PAE-EGFR cells were seeded into 35 mm Petri dishes plate in quadruplicate. After 12 hours, PAE and PAE-EGFR cells was treated with 12.5 μM icariside II and sildenafil for 24 hr, respectively, in the presence or absence with 100 μg/ml of EGF. Then the treated PAE and PAE-EGFR cells were lysed with RIPA buffer and subjected to 8% SDS-PAGE electrophoresis. eNOS protein expression was detect by Western blot. After development with super ECL substrate, the band was analyzed with an Optical density scanner. The resulted results were analyzed by normalizing to β-actin.

[3] = system: Primary human corpus cavernosum smooth muscle cells (CCSMCs); assay: NOS activity in corpus cavernosum smooth muscle cells; type: cell-based
Experimental: Primary human corpus cavernosum smooth muscle cells ([…]) were provided by the Andrology Center of Peking University. The […] of the third passage were cultured in six well plates for two days. Then the cells were treated with icariside II or the sildenafil at a concentration of 0, 10^-9, 10^-8, 10^-7, 10^-6, 10^-5 M; or treated with icariside II (0, 10^-9, 10^-8, 10^-7, 10^-6, 10^-5 M) in the presence or absence of LNNA (4×10^-4 M). The control group was cultured with DMEM only. After 24 hours, the cells were washed three times and 180 μl lysis buffer was added into each well; 60 μl cell suspension was taken for protein concentration assay with BCA protein kit; 100 μl cell suspension was taken for NOS activity test. NOS activity (units/mg protein)=[(valueNOS-measure-valueNOS-blank)÷(38.3×10^6)]×[(2.15+supernatant volume)÷(15×S supernatant volume)]÷[protein concentration in each well].

[4] = target: PDE5 (Homo sapiens, UniProt O76074); conditions: tested in vitro; previous study; cited from earlier work
[5] = system: volunteers with erectile dysfunction; conditions: 500 mg/time, single oral administration before sexual activity; cited from earlier work

Molecule | NOS enzyme activity ([1]; 10^−5 M) [u/mg] | NOS enzyme activity ([1]; 10^−6 M) [u/mg] | NOS enzyme activity ([1]; 10^−6 M, listed as icariside II) [u/mg] | NOS enzyme activity ([1]; 10^−7 M) [u/mg] | NOS enzyme activity ([1]; 10^−8 M) [u/mg] | NOS enzyme activity ([1]; 10^−8 M, listed as icariside II) [u/mg] | NOS enzyme activity ([1]; 10^−9 M) [u/mg] | eNOS protein expression (normalized to β-actin) [2] | eNOS expression levels [2] | NOS activity (peak) ([3]; 10^−6 M, 24 hours, untreated 0.46 units/mg) [units/mg] | NOS activity ([3]; 10^−8 M, 24 hours, untreated 0.46 units/mg) [units/mg] | peak value of NOS activity in presence of LNNA ([3]; with LNNA 4×10^−4 M) [unit/mg] | PDE5 inhibiting potency [4] | erectile function after single oral administration [5] | effect on NOS activity in endothelial cells ([1]; endothelial cells (PAE, PAE-EGFR), p>0.05) | effect on NOS activity in CCSMCs ([3]; 10^−9 to 10^−5 M, 24 hours)
icariside II | 18.66 ± 1.79 | 19.1 ± 1.9 | 19.1±1.891 | 16.46 ± 1.63 | 10.71 ± 0.98 | 10.71±1.09 | 8.65 ± 0.87 | 2.08 ± 0.02 | 1.16 | 4.19 | 1.59 | 2.67 | significantly lower than sildenafil | some improvement on erectile function, but the effect is not significant | – | –
CCCc1nn(C)c2c(=O)[nH]c(-c3cc(S(=O)(=O)N4CCN(C)CC4)ccc3OCC)nc12 [Sildenafil, sildenafil, reference compound] | 6.66 ± 0.65 | 5.99 ± 0.58 | – | 6.32 ± 0.63 | 5.85 ± 0.579 | – | 5.76 ± 0.56 | 1.38 ± 0.013 | 1.12 | – | – | – | – | – | no significant effect | no significant difference
